target: T1, Nanoluciferase-BRD9 fusion protein (3×FLAG-NLuc-BRD9) in SYO-1 cells (Homo sapiens, UniProt Q9H8M2); assay: SYO1 BRD9 NanoLuc Degradation Assay; format: cell-based; details: Table 6B; SYO-1 cells expressing 3×FLAG-NLuc-BRD9, 6 hours incubation, 1 μM top dose; read-out: SYO1 BRD9-NanoLuc degradation IC50
T1 construct: expressed in transfected cells; host or cells: SYO-1
T1 sequence (Q9H8M2 1-597): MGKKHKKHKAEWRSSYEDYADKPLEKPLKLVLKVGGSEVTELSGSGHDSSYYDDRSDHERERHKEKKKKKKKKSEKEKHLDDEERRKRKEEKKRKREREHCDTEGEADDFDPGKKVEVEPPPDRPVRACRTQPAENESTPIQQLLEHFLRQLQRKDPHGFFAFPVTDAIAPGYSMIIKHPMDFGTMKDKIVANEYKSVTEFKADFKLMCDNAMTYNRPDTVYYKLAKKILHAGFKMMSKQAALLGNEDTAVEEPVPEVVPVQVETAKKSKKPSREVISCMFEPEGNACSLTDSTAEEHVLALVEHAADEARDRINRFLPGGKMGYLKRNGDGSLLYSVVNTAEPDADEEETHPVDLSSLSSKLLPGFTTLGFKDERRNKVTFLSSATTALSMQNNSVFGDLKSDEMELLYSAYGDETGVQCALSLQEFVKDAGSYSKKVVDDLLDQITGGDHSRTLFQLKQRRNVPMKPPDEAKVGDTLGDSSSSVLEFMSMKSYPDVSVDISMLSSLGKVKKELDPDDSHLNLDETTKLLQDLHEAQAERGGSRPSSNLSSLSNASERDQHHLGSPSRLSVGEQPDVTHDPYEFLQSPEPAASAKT
Method: Procedure: A stable SYO-1 cell line expressing 3×FLAG-NLuc-BRD9 was generated. On day 0 cells were seeded in 30 μL media into each well of 384-well cell culture plates. The seeding density was 8000 cells/well. On day 1, cells were treated with 30 nL DMSO or 30 nL of 3-fold serially DMSO-diluted compounds (10 points in duplicates with 1 μM as final top dose). Subsequently plates were incubated for 6 hours in a standard tissue culture incubator and equilibrated at room temperature for 15 minutes. Nanoluciferase activity was measured by adding 15 μL of freshly prepared Nano-Glo Luciferase Assay Reagent (Promega N1130), shaking the plates for 10 minutes and reading the bioluminescence using an EnVision reader.
Results: The Inhibition % was calculated using the following formula: % Inhibition=100×(LumHC−Lumsample)/(LumHC−LumLC). DMSO treated cells are employed as High Control (HC) and 1 μM of a known BRD9 degrader standard treated cells are employed as Low Control (LC).

| Structure (SMILES) | DC50 [µM] |
| --- | --- |
| COc1cc(-c2cn(C3CC3)c(=O)c3cnc(N4CCC4)cc23)cc(OC)c1CN1CCC(N2CCN(c3ccc4c(c3)CN(C3CCC(=O)NC3=O)C4=O)CC2)CC1 (centres unmarked) [Compound D122] | < 0.01 |
| COc1cc(-c2cn(C)c(=O)c3cnc(N(C)C)cc23)cc(OC)c1CN1CCN(c2ccc3c(c2)CN(C2CCC(=O)NC2=O)C3=O)CC1 (centres unmarked) [Compound D114] | < 0.01 |
| COc1cc(-c2cn(C)c(=O)c3cnc(N4CCC4)nc23)cc(OC)c1CN1CCC(CN2CCC3(CC2)CC(Oc2ccc4c(c2)CN(C2CCC(=O)NC2=O)C4=O)C3)CC1 (centres unmarked) [Compound D182] | < 0.01 |
| COc1cc(-c2cn(C)c(=O)c3cnc(N(C)C)cc23)cc(OC)c1CN1CCC(C(=O)N2CCC3(CC2)CC(Oc2ccc4c(c2)C(=O)N(C2CCC(=O)NC2=O)C4=O)C3)CC1 (centres unmarked) [Compound D55] | < 0.01 |
| C=CCn1cc(-c2cc(OC)c(CN3CCN(CCC4CCN(c5ccc6c(c5)C(=O)N(C5CCC(=O)NC5=O)C6=O)CC4)CC3)c(OC)c2)c2cc(N(C)C)ncc2c1=O (centres unmarked) [Compound D134] | < 0.01 |
| COc1cc(-c2cn(C)c(=O)c3cnc(N(C)C)cc23)cc(OC)c1CN1CCC(N2CCN(c3ccc4c(c3)C(=O)N(C3CCC(=O)NC3=O)C4=O)CC2)CC1 (centres unmarked) [Compound D52] | < 0.01 |
| C=CCCn1cc(-c2cc(OC)c(CN3CCN(CCC4CCN(c5ccc6c(c5)C(=O)N(C5CCC(=O)NC5=O)C6=O)CC4)CC3)c(OC)c2)c2cc(N(C)C)ncc2c1=O (centres unmarked) [Compound D135] | < 0.01 |
| COc1cc(-c2cn(C)c(=O)c3cnc(N(C)C)cc23)cc(OC)c1CN1CC(C#Cc2ccc3c(c2)C(=O)N(C2CCC(=O)NC2=O)C3=O)C1 (centres unmarked) [Compound D89] | < 0.01 |
| COc1cc(-c2cn(C)c(=O)c3cnc(N(C)C)cc23)cc(F)c1CN1CCC(CCN2CCN(c3ccc4c(c3)C(=O)N(C3CCC(=O)NC3=O)C4=O)CC2)CC1 (centres unmarked) [Compound D41] | < 0.01 |
| COc1cc(-c2cn(C)c(=O)c3ccc(N4CCC4)cc23)cc(OC)c1CN1CCC(N2CCN(c3ccc4c(c3)CN(C3CCC(=O)NC3=O)C4=O)CC2)CC1 (centres unmarked) [Compound D176] | < 0.01 |
| COc1cc(-c2cn(C)c(=O)c3cnc(N(C)C)cc23)cc(OC)c1CN1CCN(C(C)(C)COc2ccc3c(c2)C(=O)N(C2CCC(=O)NC2=O)C3=O)CC1 (centres unmarked) [Compound D78] | < 0.01 |
| CN(C)c1cc2c(-c3cc(Cl)c(CN4CCC(CN5CCC6(CC5)CC(Oc5ccc7c(c5)C(=O)N(C5CCC(=O)NC5=O)C7=O)C6)CC4)c(Cl)c3)cn(C)c(=O)c2cn1 (centres unmarked) [Compound D119] | 0.01 to 0.1 |
| COc1cc(-c2cn(C)c(=O)c3cnc(N(C)C)cc23)cc(OC)c1CN1CCN(C[C@@H](C)Oc2ccc3c(c2)C(=O)N(C2CCC(=O)NC2=O)C3=O)CC1 (some centres unmarked) [Compound D82] | < 0.01 |
| COc1cc(-c2cn(C)c(=O)c3cnc(N(C)C)cc23)cc(OC)c1CN1CC2(C1)CN(C(C)(C)C#Cc1ccc3c(c1)C(=O)N(C1CCC(=O)NC1=O)C3=O)C2 (centres unmarked) [Compound D72] | < 0.01 |
| COc1cc(-c2cn(C)c(=O)c3cnc(N(C)C)cc23)cc(OC)c1CN1CCC2(CC1)CN(c1ccc3c(c1)C(=O)N(C1CCC(=O)NC1=O)C3=O)C2 (centres unmarked) [Compound D68] | < 0.01 |
| CCN(C)c1cc2c(-c3cc(OC)c(CN4CCN(CCC5CCN(c6ccc7c(c6)C(=O)N(C6CCC(=O)NC6=O)C7=O)CC5)CC4)c(OC)c3)cn(C)c(=O)c2cn1 (centres unmarked) [Compound D124] | < 0.01 |

Next, values leading:

| DC50 [µM] | Structure (SMILES) |
| --- | --- |
| < 0.01 | COc1cc2c(-c3cc(OC)c(CN4CC(CN5CCC6(CC5)CN(c5ccc7c(c5)C(=O)N(C5CCC(=O)NC5=O)C7)C6)C4)c(OC)c3)cn(C)c(=O)c2cn1 (centres unmarked) [Compound D184] |
| < 0.01 | COc1cc(-c2cn(C)c(=O)c3cnc(N4CCC4)cc23)cc(OC)c1CN1CCC(N2CCN(c3ccc4c(c3)CN(C3CCC(=O)NC3=O)C4=O)CC2)CC1 (centres unmarked) [Compound D131] |
| < 0.01 | COc1cc(-c2cn(C)c(=O)c3cnc(N(C)C)cc23)cc(OC)c1CN1CC(CN2CCC3(C2)CN(c2ccc4c(c2)C(=O)N(C2CCC(=O)NC2=O)C4=O)C3)C1 (centres unmarked) [Compound D51] |
| ≥ 1 | COc1cc(-c2cn(C)c(=O)c3cnc(N4CCC4)cc23)cc(OC)c1CN1CC(N2CCC(c3ccc4c(c3)C(=O)N(C3CCC(=O)NC3=O)C4)CC2)C1 (centres unmarked) [Compound D179] |

same assay, conditions: Table 6C; SYO-1 cells expressing 3×FLAG-NLuc-BRD9, 6 hours incubation, 1 μM top dose; read-out: SYO1 BRD9-NanoLuc degradation IC50

| Structure (SMILES) | DC50 [µM] |
| --- | --- |
| COc1cc(-c2cn(C)c(=O)c3cnc(C(C)(C)O)cc23)cc(OC)c1CN1CCC(CN2CCC3(CC2)CC(Oc2ccc4c(c2)C(=O)N(C2CCC(=O)NC2=O)C4)C3)CC1 (centres unmarked) [Compound D228] | < 0.01 |
| COc1cc2c(-c3cc(OC)c(CN4CCN(c5ccc6c(c5)C(=O)N(C5CCC(=O)NC5=O)C6)CC4C)c(OC)c3)cn(C)c(=O)c2cn1 (centres unmarked) [Compound D293] | < 0.01 |
| COCC1CN(CCC2CCN(c3ccc4c(c3)C(=O)N(C3CCC(=O)NC3=O)C4=O)CC2)CCN1Cc1c(OC)cc(-c2cn(C)c(=O)c3cnc(N4CCC4)cc23)cc1OC (centres unmarked) [Compound D215] | < 0.01 |
| CCOC1CC1c1cc2c(-c3cc(OC)c(CN4CCN(CCC5CCN(c6ccc7c(c6)C(=O)N(C6CCC(=O)NC6=O)C7)CC5)CC4)c(OC)c3)cn(C)c(=O)c2cn1 (centres unmarked) [Compound D203] | < 0.01 |
| COc1cc(-c2cn(C)c(=O)c3cnc(C4CC4)cc23)cc(OC)c1CN1CC(Oc2ccc3c(c2)C(=O)N(C2CCC(=O)NC2=O)C3)C1 (centres unmarked) [Compound D300] | < 0.01 |
| COc1cc(-c2cn(C)c(=O)c3cnc(N(C)C)cc23)cc(OC)c1CN1CC(C#Cc2ccc3c(c2)C(=O)N(C2CCC(=O)NC2=O)C3)C1 (centres unmarked) [Compound D267] | < 0.01 |
| COc1cc(-c2cn(C)c(=O)c3cnc(C4(C)CC4)cc23)cc(OC)c1CN1CCC(CCN2CCN(c3ccc4c(c3)C(=O)N(C3CCC(=O)NC3=O)C4=O)CC2)CC1 (centres unmarked) [Compound D216] | < 0.01 |
| COc1cc(-c2cn(C)c(=O)c3cnc(N(C)C)cc23)cc(OC)c1CN1CC2(CC(N3CCN(C4CCC(=O)NC4=O)C(=O)C3)C2)C1 (centres unmarked) [Compound D249] | 0.1 to 1 |
| COc1cc(-c2cn(C)c(=O)c3cnc(N4CCOCC4)cc23)cc(OC)c1CN1CC(Oc2ccc3c(c2)CN(C2CCC(=O)NC2=O)C3=O)C1 (centres unmarked) [Compound D314] | < 0.01 |
| [2H]C([2H])([2H])n1cc(-c2cc(OC)c(CN3CCN(CCC4CCN(c5ccc6c(c5)CN(C5CCC(=O)NC5=O)C6=O)CC4)CC3)c(OC)c2)c2cc(N(C)C)ncc2c1=O (centres unmarked) [Compound D223] | < 0.01 |
| COc1cc2c(-c3cc(OC)c(CN4CCC(c5ccc6c(c5)CN(C5CCC(=O)NC5=O)C6=O)CC4)c(OC)c3)cn(C)c(=O)c2cn1 (centres unmarked) [Compound D235] | < 0.01 |

The next lines start with the values.

| DC50 [µM] | Structure (SMILES) |
| --- | --- |
| < 0.01 | COc1cc(-c2cn(C)c(=O)c3cnc(N4CC(C)(OC)C4)cc23)cc(OC)c1CN1CCC(CN2CCC3(CC2)CN(c2ccc4c(c2)C(=O)N(C2CCC(=O)NC2=O)C4)C3)CC1 (centres unmarked) [Compound D209] |
| < 0.01 | COc1cc(-c2cn(C)c(=O)c3cnc(N4CCC4)cc23)cc(OC)c1C1CCN(c2ccc3c(c2)C(=O)N(C2CCC(=O)NC2=O)C3)CC1 (centres unmarked) [Compound D294] |
| < 0.01 | COc1cc(-c2cn(C)c(=O)c3cnc(N4CCC4)cc23)cc(OC)c1CN1CC(CN2CCC3(CC2)CN(c2ccc4c(c2)C(=O)N(C2CCC(=O)NC2=O)C4)C3)C1 (centres unmarked) [Compound D311] |
| ≥ 1 | COc1cc(-c2cn(C)c(=O)c3cnc(N4CCC4)cc23)cc(OC)c1CN1CC(CN2CCC3(CC2)CN(c2ccc4c(c2)C(=O)N(C2CCC(=O)N(C)C2=O)C4)C3)C1 (centres unmarked) [Compound D259] |
| < 0.01 | COc1cc(-c2cn(C)c(=O)c3cnc(N4CC(F)(F)C4)cc23)cc(OC)c1CN1CCN(c2ccc3c(c2)C(=O)N(C2CCC(=O)NC2=O)C3)CC1(C)C (centres unmarked) [Compound D278] |
| < 0.01 | COc1cc(-c2cn(C)c(=O)c3cnc(N4CC(F)(F)C4)cc23)cc(OC)c1CN1CC(CN2CCC3(CC2)CN(c2ccc4c(c2)C(=O)N(C2CCC(=O)NC2=O)C4)C3)C1 (centres unmarked) [Compound D211] |
| < 0.01 | COc1cc(-c2cn(C)c(=O)c3cnc(N4CC5(CC5)C4)cc23)cc(OC)c1CN1CC(CN2CCC3(CC2)CN(c2ccc4c(c2)C(=O)N(C2CCC(=O)NC2=O)C4)C3)C1 (centres unmarked) [Compound D201] |
| < 0.01 | COc1cc2c(-c3cc(OC)c(CN4CC(CN5CCC6(CC5)CN(c5ccc7c(c5)C(=O)N(C5CCC(=O)NC5=O)C7)C6)C4)c(OC)c3)cn(C)c(=O)c2cn1 (centres unmarked) [Compound D316] |
| < 0.01 | COc1cc(-c2cn(C)c(=O)c3cnc(N4CCC4)cc23)cc(OC)c1CN1CCN(c2ccc3c(c2)C(=O)N(C2CCC(=O)NC2=O)C3)CC1(C)C (centres unmarked) [Compound D290] |
| < 0.01 | COc1cc2c(-c3cc(OC)c(CN4CCC(CCN5CCC6(CC5)CN(c5ccc7c(c5)C(=O)N(C5CCC(=O)NC5=O)C7)C6)CC4)c(OC)c3)cn(C)c(=O)c2cn1 (centres unmarked) [Compound D199] |
